Consider ten molecules from US10000452B1, “Quinolone-based compounds, formulations, and uses thereof” (University of South Florida, priority 2016, dated 2018).

In data set [1] the test system is malarial strain W2 (pyrimethamine and chloroquine-resistant). Briefly: in vitro antimalarial activity against multidrug resistant strain W2. The class given is cell-based, P. falciparum. As to conditions: Plasmodium falciparum, read-out: EC50 W2 (nM).
Data set [2] deals with malarial strain TM90-C2B (mefloquine, chloroquine, atovaquone, and pyrimethamine-resistant). Briefly: microbe, parasite or virus in culture. The data set is classed as cell-based, P. falciparum. The following applies: for EC50: Plasmodium falciparum, TM90, read-out: EC50 TM90-C2B (nM); for RI: RI = EC50 TM90-C2B/EC50 W2. An excerpt: Ideally, the RI of a compound should lie between 0.3 and 3.0 in order to avoid rapidly inducing resistance in the parasite. […]

For data set [3], the system named is P. berghei sporozoites expressing luciferase. Briefly: in vitro liver stage activity, luciferase sporozoites infecting HEPG2 hepatoma cells. The class given is cell-based. As to conditions: Plasmodium berghei, HEPG2 cells.
The subject of another data set is J774 mammalian cells. Briefly: cytotoxicity to J774 cells. The data set is classed as cell-based. The following applies: Mus musculus, J774, read-out: EC50 J774 (μM). On the procedure: This allowed a simplified method for comparing the different assays being simultaneously run. Additionally, each compound was also tested for cytotoxicity using mammalian J774 cell lines in a 96-well plate format.^12-14, 16

Data set [4] can be described thus: aqueous solubility (LC/MS- or HPLC-based assay). The data set is classed as physicochemical. The gist of the method:
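Aqueous solubility and log D (pH 7.4) determined by LC/MS-based assays; solubility examined at more than one pH.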

Data set [5] can be described thus: lipophilicity log D at pH 7.4. The data set is classed as physicochemical. The following applies: octanol/water. An excerpt:
Furthermore, to profile the properties of the piperazinyl-4(1H)-quinolones, and to identify potential limitations, aqueous solubility and lipophilicity log D were experimentally determined via LC/MS-based assays as described by the Manetsch laboratory previously^8,10,31,32 (Tables 9-12). Encouragingly, the piperazinyl-4(1H)-quinolones were much more soluble than the previously described phenoxyethoxy-4(1H)-quinolone analogues.^19 As expected, the solubility of all compounds was affected by pH, with better solubility under more acidic conditions.
In parallel to testing the compounds for in vitro antimalarial activity, a limited structure-property relationship (SPR) study focusing on log D and aqueous solubility was conducted to assess potential physiochemical liabilities (FIG. 22). […] For these reasons, physicochemical properties were not strongly considered as selection criteria for in vivo efficacy studies.

The subject of another data set is Pb-infected mice. Briefly: in vivo efficacy scouting assay against blood stages. As to conditions: for activities in these scout assays: result in words; for inhibition in vivo at 50 mg/kg: Plasmodium berghei, 144 h, read-out: % Inhibition Day 6 PI. Also on record: species or system P. berghei; mice. On the procedure:
The screening involved a single oral 50 mg/kg dose 1 day post infection (PI) and an assessment of parasitemia on days 3 PI and 6 PI (Table 6).
The screening was performed by treating two infected mice with a single 50 mg/kg oral dose of test compound suspended in PEG400 on day 1 postexposure (PE) followed by assessing parasitemia on days 3 and 6 PE.

Data set [6] has as its system P. berghei sporozoite infected mice. Briefly: in vivo efficacy against liver stages, bioluminescence imaging. The following applies: for % Inhibition Day 9 PI: single dose 1 hour after infection; for protection by bioluminescence imaging: 44 h, day 6, 9 and 13 PI, 25, 50, 100 mg/kg oral or subcutaneous, result in words. On the procedure: Animals (n=5 per group) received a single dose by gavage 1 hour after inoculation with sporozoites. Representative images taken at 44 h, day 6, day 9, and day 13 after infection are shown. At 44 h, bioluminescent signal was detected in control untreated animals, with the highest intensity noted in the area overlaying the liver, consistent with the presence of liver-stage parasites.
At 44 h PI, day 6 PI, day 9 PI, and day 13 PI, compound efficacy was determined by bioluminescence imaging via injection of D-luciferin. Both compounds were administered orally or subcutaneously at increasing doses of 25 mg/kg, 50 mg/kg, and 100 mg/kg in PEG 400. […] Progression of parasitemia was monitored up to 30 days after infection (Table 8).

Where [7] appears, read: aqueous solution, pH 2, simulated gastric fluid, pH 2.0, read-out: Solubility pH 2.0.
Where [8] appears, read: aqueous solution, pH 6.5, aqueous buffer, pH 6.5, read-out: Solubility pH 6.5.
The mark [9] stands for this setting: single oral 50 mg/kg dose 1 day PI.
The mark [10] stands for this setting: single oral 50 mg/kg dose 1 day PI, vs untreated animals.
The mark [11] stands for this setting: aqueous medium, pH 2, simulated gastric fluid, pH 2.0, read-out: Solubility pH 2.0.
The mark [12] stands for this setting: aqueous medium, pH 6.5, aqueous buffer, pH 6.5, read-out: Solubility pH 6.5.

The structures appear in SMILES notation. ≈ marks a conversion by molar mass, not a printed value. Where “and” joins values, the source holds several entries; their conditions need not be identical. Equal entries are not always repeated. Where two headings read alike, the source gives them in different places. Where only a bound is given, the exact number is not on record here.

On to `COC(=O)c1c[nH]c2cc(CN3CCN(c4ccc(F)cc4)CC3)c(OC)cc2c1=O` [Compound 8aa, Methyl 7-((4-(4-fluorophenyl)piperazin-1-yl)methyl)-6-methoxy-4-oxo-1,4-dihydroquinoline-3-carboxylate], for which the EC50 (as a rule, the concentration that produces a half-maximal response) in data set [1] is 1.79 nM; in data set [2] it was 218 nM; in data set [3], 32.3 nM; with J774 mammalian cells, above 20 µM. The solubility (in general, how much of the substance goes into solution per volume) is 60 to 79.9 µM (≈ 25.5 to 34 µg/mL) in data set [4] (setting [7]) and at least 80 µM in data set [4] (setting [8]). Further, the chromatographic logD (usually lipophilicity estimated from chromatographic retention) in data set [5] amounted to 1.31. For the same molecule, the “activities in these scout assays” value in the data set on Pb-infected mice (setting [9]) is reported as “excellent activities”. Besides, the “% Inhibition Day 6 PI” value in the data set with Pb-infected mice (setting [10]) was found to be 56.9%.

On to `COC(=O)c1c[nH]c2cc(CN3CCN(c4ccccc4)CC3)ccc2c1=O` [Compound 8j, Methyl 4-oxo-7-((4-phenylpiperazin-1-yl)methyl)-1,4-dihydroquinoline-3-carboxylate], for which the EC50 in data set [1] amounted to 1.25 nM; in data set [2], 483 nM; in data set [3], 4.74 nM. The solubility in data set [4] (setting [11]) and in data set [4] (setting [12]) was at least 80 µM each time. This molecule also returned a chromatographic logD in data set [5] of 0.86. Also, the “No. of Cures” value in data set [6] (25 mg/kg oral) is reported as 2/5; in data set [6] (50 mg/kg oral), 2/5; in data set [6] (50 mg/kg subcutaneous), 3/5; in data set [6] (100 mg/kg oral), 5/5. Further, the “% Inhibition Day 9 PI” value in data set [6] (25 mg/kg oral) was 65.3%; in data set [6] (50 mg/kg oral), 85.1%; in data set [6] (50 mg/kg subcutaneous) it was above 99.0%; in data set [6] (100 mg/kg oral), above 99.0%. In data set [6], the “protection by bioluminescence imaging” value was “no luminescence was observed”. In addition, the “animals cured (survival curves)” value in data set [6] (over all doses tested, 25-100 mg/kg) is “two or more out of five”.

As to `COc1cc(NC(C)CCCN)c2ncccc2c1` (stereo not shown) [Primaquine, reference compound], in data set [6] (50 mg/kg oral), the “No. of Cures” value is given as 2/5 and the “% Inhibition Day 9 PI” value is recorded as above 99.0%.

`COC(=O)c1c[nH]c2ccc(CN3CCN(c4ccc(OC)cc4)CC3)cc2c1=O` [Compound 8ag, Methyl 6-((4-(4-methoxyphenyl)piperazin-1-yl)methyl)-4-oxo-1,4-dihydroquinoline-3-carboxylate]: the EC50 was 164 nM in data set [1], 2900 nM in data set [2], above 100 nM in data set [3] and above 20 µM in the data set with J774 mammalian cells. Also, the RI in data set [2] came out at 17.7. In addition, the solubility in data set [4] (aqueous solution (buffer not named), pH 2, simulated gastric fluid, pH 2.0, read-out: Solubility pH 2.0) is at least 80 µM; in data set [4] (aqueous solution (buffer not named), pH 6.5, aqueous buffer, pH 6.5, read-out: Solubility pH 6.5), 20 to 39.9 µM (≈ 8.15 to 16.3 µg/mL). The molecule further came in with a chromatographic logD in data set [5] of 1.91. Besides, the “% Inhibition Day 6 PI” value in the data set with Pb-infected mice (setting [10]) is “little to moderate protection”.

In the case of `COC(=O)c1c[nH]c2cc(CN3CCN(c4ccc(F)cc4)CC3)ccc2c1=O` [Compound 8o, Methyl 7-((4-(4-fluorophenyl)piperazin-1-yl)methyl)-4-oxo-1,4-dihydroquinoline-3-carboxylate], the EC50 in data set [1] was 1.75 nM; in data set [2] it was 131 nM; in data set [3], 1.06 nM; with J774 mammalian cells, 2 µM. Further, the RI in data set [2] was found to be 74.9. Also, the solubility in data set [4] (setting [7]) and in data set [4] (setting [8]) was at least 80 µM in each case. In addition, the chromatographic logD in data set [5] turned out to be 2.38. Moreover, the inhibition in vivo at 50 mg/kg in the data set on Pb-infected mice (po) is above 85%. The “activities in these scout assays” value with Pb-infected mice (setting [9]) is listed as “excellent activities”. The “% Inhibition Day 3 PI” value with Pb-infected mice (setting [10]) is “full inhibition”.

Regarding `COC(=O)c1c[nH]c2cc(CN3CCN(Cc4ccccc4)CC3)c(C)cc2c1=O` [Compound 8r, Methyl 7-((4-benzylpiperazin-1-yl)methyl)-6-methyl-4-oxo-1,4-dihydroquinoline-3-carboxylate], the EC50 in data set [1] is 1.45 nM; in data set [2], 890 nM; in data set [3], 9.46 nM; in the data set with J774 mammalian cells it was above 20 µM. The solubility in data set [4] (setting [11]) and in data set [4] (setting [12]) was at least 80 µM throughout. Besides, in data set [5], the chromatographic logD came out at 1.94. For the same molecule, the “% Inhibition Day 6 PI” value with Pb-infected mice (setting [10]) is “little to moderate protection”.

`COC(=O)c1c[nH]c2cc(CN3CCN(Cc4ccc(OC)cc4)CC3)ccc2c1=O` [Compound 8l, Methyl 7-((4-(4-methoxybenzyl)piperazin-1-yl)methyl)-4-oxo-1,4-dihydroquinoline-3-carboxylate]: the EC50 in data set [1] was 2.5 nM; in data set [2], 799 nM; in data set [3], 83.4 nM. The solubility in data set [4] (setting [11]) and in data set [4] (setting [12]) was at least 80 µM throughout. Also, in data set [5], the chromatographic logD is 1.66. Besides, the inhibition in vivo at 50 mg/kg in the data set with Pb-infected mice (setting [10]) is around 40%. Also, the “No. of Cures” value in data set [6] (25 mg/kg oral) was 0/5; in data set [6] (50 mg/kg oral) it was 0/5; in data set [6] (50 mg/kg subcutaneous), 0/5; in data set [6] (100 mg/kg oral), “one of five and 1/5”. In addition, the “% Inhibition Day 9 PI” value is reported as 49.1% in data set [6] (25 mg/kg oral) and 20.1% in data set [6] (50 mg/kg subcutaneous). For the same molecule, the “protection by bioluminescence imaging” value in data set [6] was “full protection at all time points only at an oral dose of 100 mg/kg”.

Turning to `COC(=O)c1c[nH]c2cc(CN3CCN(c4ccccc4)CC3)c(C)cc2c1=O` [Compound 8q, Methyl 6-methyl-4-oxo-7-((4-phenylpiperazin-1-yl)methyl)-1,4-dihydroquinoline-3-carboxylate], the EC50 in data set [1] is 0.435 nM; in data set [2] it was 147 nM; in data set [3], 6.92 nM; in the data set with J774 mammalian cells it was 11.9 µM. The RI in data set [2] was found to be 338. In addition, the solubility in data set [4] (setting [11]) was at least 80 µM; in data set [4] (setting [12]), 60 to 79.9 µM (≈ 23.5 to 31.3 µg/mL). For the same molecule, in data set [5], the chromatographic logD is 2.81. Moreover, the “% Inhibition Day 6 PI” value in the data set on Pb-infected mice (setting [10]) was “little to moderate protection”.

For the molecule `COC(=O)c1c[nH]c2cc(CN3CCN(Cc4ccccc4)CC3)ccc2c1=O` [Compound 8k, Methyl 7-((4-benzylpiperazin-1-yl)methyl)-4-oxo-1,4-dihydroquinoline-3-carboxylate], the EC50 came out at 1.41 nM in data set [1], 153 nM in data set [2], 43.7 nM in data set [3] and 10.4 µM in the data set with J774 mammalian cells. Moreover, the solubility in data set [4] (setting [11]) and in data set [4] (setting [12]) was at least 80 µM in each case. The molecule also yielded a chromatographic logD in data set [5] of 2.06. In addition, the “% Inhibition Day 6 PI” value in the data set with Pb-infected mice (setting [10]) was “little to moderate protection”.

In the case of `COC(=O)c1c[nH]c2cc(CN3CCN(Cc4ccccc4)CC3)c(OC)cc2c1=O` [Compound 8x, Methyl 7-((4-benzylpiperazin-1-yl)methyl)-6-methoxy-4-oxo-1,4-dihydroquinoline-3-carboxylate], the EC50 is 5.45 nM in data set [1], 2830 nM in data set [2], 9.26 nM in data set [3] and above 20 µM in the data set with J774 mammalian cells. Further, the solubility in data set [4] (setting [11]) was at least 80 µM; in data set [4] (setting [12]), 60 to 79.9 µM (≈ 25.3 to 33.7 µg/mL). Also, the chromatographic logD in data set [5] came to 1.28. Further, the “% Inhibition Day 6 PI” value with Pb-infected mice (setting [10]) is given as “little to moderate protection”.
